The values that follow come from patent publication US5227375A, “Aromatase inhibitors” (Endorecherche, Inc., priority 1990, dated 1993).

For this assay, the target named is T1, placental aromatase (Homo sapiens, UniProt P11511).
T1 construct: Microsomal aromatase was obtained from human placenta; from tissue; host or cells: human placenta microsomes
T1 sequence (P11511 1-503): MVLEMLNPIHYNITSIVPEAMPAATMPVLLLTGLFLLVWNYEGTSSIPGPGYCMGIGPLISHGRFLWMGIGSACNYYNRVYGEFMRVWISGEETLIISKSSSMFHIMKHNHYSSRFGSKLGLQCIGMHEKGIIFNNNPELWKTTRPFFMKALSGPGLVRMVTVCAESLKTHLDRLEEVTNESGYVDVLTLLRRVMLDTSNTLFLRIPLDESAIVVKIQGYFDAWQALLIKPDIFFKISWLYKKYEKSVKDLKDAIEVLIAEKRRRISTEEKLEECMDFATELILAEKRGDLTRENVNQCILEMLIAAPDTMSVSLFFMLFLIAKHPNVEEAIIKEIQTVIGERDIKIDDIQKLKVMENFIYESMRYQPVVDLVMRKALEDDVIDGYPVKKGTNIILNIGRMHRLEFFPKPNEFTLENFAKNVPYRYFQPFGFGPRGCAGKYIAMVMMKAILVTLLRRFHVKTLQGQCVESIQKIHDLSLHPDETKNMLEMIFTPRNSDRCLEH
The experiment in a line: Inhibition of placental aromatase activity (tritiated water release from [3H]androstenedione; modified Thompson and Siiteri assay). It counts as biochemical. The following applies: for aromatase inhibitory activity (in words): qualitative statement. As for the experimental part: Microsomal aromatase was obtained from human placenta. A reaction vessel was prepared containing microsomes (0.124 mg protein/ml), NADPH (0.625 mM), [^3 H]androstenedione (0.33 μM) and increasing concentrations of the potential inhibitor being tested in buffer (800 μl) (0.1M KH2 PO4, pH 7.5). The conversion of androstenedione to estrone was allowed to proceed at 37° C. for 30 min and stopped by addition of 200 μl of charcoal suspension (25 mg/ml) in the same buffer. After centrifugation, tritiated water contained in 100 μl of supernatant was counted. The amount of tritiated water is proportional to the amount of transformed [^3 H] androstenedione.

Regarding `C=CC[C@@H]1C[C@H]2CC(=O)CC[C@]2(C)[C@H]2CC[C@]3(C)C(=O)CC[C@H]3[C@H]12` [EM 198, 7α-allyl-5α-androstan-3,17-dione], the affinity corresponds to a Ki of 600 nM and the “aromatase inhibitory activity (in words)” value is given as “showed aromatase inhibitory activity”.
Turning to `C=CC[C@@H]1C[C@@H]2CC(=O)CC[C@]2(C)[C@H]2CC[C@]3(C)C(=O)CC[C@H]3[C@H]12` [EM 176, 7α-allyl-5β-androstan-3,17-dione], the affinity corresponds to a Ki of 900 nM and the “aromatase inhibitory activity (in words)” value is reported as “showed aromatase inhibitory activity”.
On to `C=CC[C@@H]1CC2=CC(=O)CC[C@]2(C)[C@H]2CC[C@]3(C)C(=O)CC[C@H]3[C@H]12` [EM 173, 7α-allyl-4-androsten-3,17-dione], for which the Ki turned out to be 200 nM and the “aromatase inhibitory activity (in words)” value was “showed aromatase inhibitory activity”.
